Assay results from patent US20190030046A1, “USE OF PURE COMPOUNDS EXTRACTED FROM ANTRODIA CAMPHORATA” (priority 2016, published 2019).

How the values were obtained:
CPT-1a = assay: Semiquantitative RT-PCR in liver tissue: CPT-1a; format: in vivo, C57BL/6J mice; conditions: vs HF, 4 weeks
Method: (§1) The difference indicates the daily food intake.
(§2) Total RNA from liver tissue was isolated with a Trizol Reagent (Molecular Research Center, Inc., Cincinnati, Ohio, USA) according to the manufacturer's instructions. The integrity of the extracted total RNA was examined by 2% agarose gel electrophoresis, and the RNA concentration was determined by […] ultraviolet (UV) light absorbency at 260 nm and 280 nm (Spectrophotometer U-2800A, Hitachi). The total RNA (1 μg) was reverse transcribed to cDNA, and 5 μL Moloney murine leukemia virus reverse transcriptase (TEpicentre, Madison, Wis., USA). The PCR was performed in a final 25 μL containing 1 U Blend Taq-Plus (TOYOBO, Japan), 10 μL of the RT cDNA product, 10 μM of each forward (F) and reverse (R) primer, 75 mM Tris-HCL (pH 8.3) containing 1 mg/L Tween 20 (pH 8.3, also known as polyoxyethylene sorbitan monolaurate), 2.5 mM dNTP (deoxy-ribonucleoside triphosphate), and 2 mM MgCl2 (magnesium chloride). The PCR products were analyzed by 2% agarose gel and stained with ethidium bromide.

C2C12 myoblasts = assay: MTT test; format: cell-based; conditions: dose of 1 to 25 μg/mL
[1] = HFD-induced diabetic mice: fasting blood glucose and biochemical indexes; conditions: 4 weeks; for Blood glucose: 12 h fasted HFD mice; for Plasma FFA / Insulin / Leptin / TC / TG: HFD mice; for Insulin / Leptin: blood; for TC / TG: plasma
Method: The control group and HFD group contained 10% and 45% fat intake, respectively. The HFD mice were subdivided into 6 groups (9 per group) followed by 8-week induction. […] During the experiment, all mice were fasted overnight, and blood samples were collected from the retro-orbital sinus. Following four-week treatment and feeding, the food was removed, and the mice were fasted for 12 h and then sacrificed. Tissue samples required were collected from the mice and weighted. Some of the tissue samples were immediately stored at −80° C. and frozen for subsequent target gene analysis. Plasma samples were collected via centrifugation of whole blood at 1600×g for 15 min at 4° C., followed by plasma separation within 30 min. Some plasma samples obtained were used for TG and TC analysis. The metabolic parameters, including body weight, weight gain, and food intake, were performed as follows. Body weight was daily measured throughout the study. Body weight gain is considered as the difference between one day and the next day. The total weight of food intake was daily measured, followed by weighing the amount of remaining feed after 24 h. The difference indicates the daily food intake.
One part of the forgoing blood samples collected from the retro-orbital sinus of 12 h fasted mice was immediately used for analysis of glucose levels. The other part was used for analysis of blood TG, TC, free fatty acids, blood insulin, leptin, and adiponectin levels. Blood glucose levels were determined by a glucose analyzer (Model 1500 sidekick glucose analyzer, YSI). Plasma triglycerides (TG), total cholesterol (TC), and free fatty acids (FFA) were determined using commercial kits in accordance with manufacturer's instructions (Triglycerides-E test, Cholesterol-E test, and FFA-C test; Wako Pure Chemical, Osaka, Japan). Insulin and leptin levels were measured by enzyme-linked immunosorbent assay (ELISA) (mouse insulin ELISA kit, Mercodia, Uppsala, Sweden; mouse leptin ELISA kit, Morinaga, Yokohama, Japan).

[2] = HFD-induced diabetic mice: histopathology (H-E) of epididymal white adipose and liver tissue; format: in vivo, C57BL/6J mice; conditions: for Adipocyte area: epididymal white adipose, 4 weeks
Method: as §1
Examination was performed for parts of EWAT (epididymal white adipose) and liver tissue specimens collected. The specimens above were soaked in formalin and neutral buffered solution and embedded in paraffin. Parts therein (8 μm) were cut and stained with hematoxylin and eosin. Images were photographed by a microscope (Olympus BX51, Olympus, Tokyo, Japan). Please refer to FIGS. 3(A) and 3(B).

membrane GLUT4 = assay: Western blot of skeletal muscle membrane GLUT4 in HFD mice; conditions: compared to HF, 4 weeks
Method: (§3) The HFD mice were subdivided into 6 groups (9 per group) followed by 8-week induction. […] Following four-week treatment and feeding, the food was removed, and the mice were fasted for 12 h and then sacrificed. Tissue samples required were collected from the mice and weighted. Some of the tissue samples were immediately stored at −80° C. and frozen for subsequent target gene analysis. Plasma samples were collected via centrifugation of whole blood at 1600×g for 15 min at 4° C., followed by plasma separation within 30 min.
(§4) We determined PPARα and FAS protein expression levels in liver tissue, PPARγ and FAS protein expression levels in adipose tissue, and membrane GLUT4 expression in skeletal muscle adipose. The total membrane fraction was collected with the buffer and determined as previously described. The membrane GLUT4, p-AMPK, and total AMPK protein content were determined by Western Blotting as previously described.

phospho-AMPK(Thr172) = assay: Western blot of phospho-AMPK(Thr172)/total-AMPK in skeletal muscle and liver of HFD mice; conditions: compared to HF, 4 weeks
Method: as §3, §4

11β-HSD1 = assay: Semiquantitative RT-PCR in liver tissue: 11β-HSD1; format: in vivo, C57BL/6J mice; conditions: vs HF, 4 weeks
Method: as §1, §2

[3] = test system: phospho-Akt(Ser473)/total-Akt(Ser473); assay: phospho-Akt(Ser473)/total-Akt in C2C12 myotube cells (Western blot); format: cell-based; conditions: TT 10 and 25 μg/mL, 25 min
Method: In the present invention, C2C12 skeletal myoblasts (ATCC, CRL-1772) were maintained in growth media consisting of Dulbecco's modified Eagle's medium (DMEM) (Gibco BRL) and supplemented with 10% Fetal Bovine Serum (FBS) (Hyclone) and 100 U/mL penicillin/100 μg/mL streptomycin (Gibco BRL), and split 1:4 using 0.05% trypsin when 80% confluent. Myoblasts were diluted and placed in a 9 cm-diameter dish. Cells were cultured to achieve 80%-90% confluency and then the growth media was changed as 2% FBS/DMEM every 24 h for 5-7 days.
In experiments for determining GLUT4 and p-Akt(Ser473)/t-Akt proteins in tubes, differentiated C2C12 cells were serum-starved in DMEM/BSA for 2 h at 37° C. prior to incubation with MeOH crude extract (at 20, 100, 200, and 500 μg/mL), test compounds (at 1, 5, 10, and 25 μg/mL), or vehicle for 25 min, or 100 nM insulin for 25 min.
The cultures obtained by cell culture above were centrifuged, and the resulting pellet was resuspended in a homogenization buffer. The forgoing steps were performed with a filtration membrane. Protein concentrations were measured using a BCA assay (Pierce). Equal amounts of protein were diluted four times in SDS sample buffer, and subjected to SDS PAGE and Western blotting with antibodies specific for Akt, p-Akt Ser^473, and GLUT4. Density blotting analysis was performed using Alpha Easy FC software.

aP2 = assay: Semiquantitative RT-PCR in liver tissue: aP2; format: in vivo, C57BL/6J mice; conditions: vs HF, 4 weeks
Method: as §1, §2

FAS = assay: Western blot of FAS protein in liver and adipose tissue of HFD mice; conditions: compared to HF, 4 weeks
Method: as §3, §4

SREBP-2 = assay: Semiquantitative RT-PCR in liver tissue: SREBP-2; format: in vivo, C57BL/6J mice; conditions: vs HF, 4 weeks
Method: as §1, §2

[4] = HFD-induced diabetic mice: liver lipids; format: in vivo, C57BL/6J mice; conditions: 4 weeks

C=C(CC[C@@H](C(=O)O)[C@H]1CC[C@@]2(C)C3=CC[C@H]4C(C)(C)[C@@H](O)CC[C@]4(C)C3=CC[C@]12C)C(C)C [TT, dehydroeburicoic acid]
CPT-1a mRNA expression level in liver (CPT-1a; HF+TT1, 10 mg/kg/day oral): increased
CPT-1a mRNA expression level in liver (CPT-1a; HF+TT2, 20 mg/kg/day oral): increased
CPT-1a mRNA expression level in liver (CPT-1a; HF+TT3, 40 mg/kg/day oral): increased
toxicity to C2C12 myoblasts in MTT test (C2C12 myoblasts): non-toxic
Blood glucose ([1]; HF+TT1, 10 mg/kg/day oral): 90.44 mg/dL
Blood glucose ([1]; HF+TT2, 20 mg/kg/day oral): 82.89 mg/dL
Blood glucose ([1]; HF+TT3, 40 mg/kg/day oral): 77.78 mg/dL
Plasma FFA ([1]; HF+TT1, 10 mg/kg/day oral): 0.95 meq/L
Plasma FFA ([1]; HF+TT2, 20 mg/kg/day oral): 0.87 meq/L
Plasma FFA ([1]; HF+TT3, 40 mg/kg/day oral): 0.81 meq/L
Insulin ([1]; HF+TT1, 10 mg/kg/day oral): 2.982 µg/L
Leptin ([1]; HF+TT1, 10 mg/kg/day oral): 9.827 ng/mL
Insulin ([1]; HF+TT2, 20 mg/kg/day oral): 2.625 µg/L
Leptin ([1]; HF+TT2, 20 mg/kg/day oral): 8.468 ng/mL
Insulin ([1]; HF+TT3, 40 mg/kg/day oral): 2.190 µg/L
Leptin ([1]; HF+TT3, 40 mg/kg/day oral): 6.439 ng/mL
TC ([1]; HF+TT1, 10 mg/kg/day oral): 120.55 mg/dL
TG ([1]; HF+TT1, 10 mg/kg/day oral): 84.85 mg/dL
TC ([1]; HF+TT2, 20 mg/kg/day oral): 114.93 mg/dL
TG ([1]; HF+TT2, 20 mg/kg/day oral): 83.63 mg/dL
TC ([1]; HF+TT3, 40 mg/kg/day oral): 112.46 mg/dL
TG ([1]; HF+TT3, 40 mg/kg/day oral): 82.31 mg/dL
Adipocyte area ([2]; HF+TT1, 10 mg/kg/day oral): 6872.5 ± 160.8 μm^2
Adipocyte area ([2]; HF+TT2, 20 mg/kg/day oral): 6530.2 ± 148.2 μm^2
Adipocyte area ([2]; HF+TT3, 40 mg/kg/day oral): 5972.4 ± 279.5 μm^2
liver ballooning degeneration ([2]; pathohistological staining): reduce
membrane expression level of GLUT4 in skeletal muscle (membrane GLUT4; HF+TT1, 10 mg/kg/day oral): significantly increased
membrane expression level of GLUT4 in skeletal muscle (membrane GLUT4; HF+TT2, 20 mg/kg/day oral): significantly increased
membrane expression level of GLUT4 in skeletal muscle (membrane GLUT4; HF+TT3, 40 mg/kg/day oral): significantly increased
expression level of p-AMPK/t-AMPK proteins in liver (phospho-AMPK(Thr172); HF+TT1, 10 mg/kg/day oral): significantly increased
expression level of phospho-AMPK/total-AMPK in skeletal muscle (phospho-AMPK(Thr172); HF+TT1, 10 mg/kg/day oral): significantly increased
expression level of p-AMPK/t-AMPK proteins in liver (phospho-AMPK(Thr172); HF+TT2, 20 mg/kg/day oral): significantly increased
expression level of phospho-AMPK/total-AMPK in skeletal muscle (phospho-AMPK(Thr172); HF+TT2, 20 mg/kg/day oral): significantly increased
expression level of p-AMPK/t-AMPK proteins in liver (phospho-AMPK(Thr172); HF+TT3, 40 mg/kg/day oral): significantly increased
expression level of phospho-AMPK/total-AMPK in skeletal muscle (phospho-AMPK(Thr172); HF+TT3, 40 mg/kg/day oral): significantly increased
11β-HSD1 mRNA expression level in liver (11β-HSD1; HF+TT1, 10 mg/kg/day oral): decreased
11β-HSD1 mRNA expression level in liver (11β-HSD1; HF+TT2, 20 mg/kg/day oral): decreased
11β-HSD1 mRNA expression level in liver (11β-HSD1; HF+TT3, 40 mg/kg/day oral): decreased
protein expression level of phospho-Akt(Ser473)/total-Akt(Ser473) [3]: increase
aP2 mRNA expression level in liver (aP2; HF+TT1, 10 mg/kg/day oral): decreased
aP2 mRNA expression level in liver (aP2; HF+TT2, 20 mg/kg/day oral): decreased
aP2 mRNA expression level in liver (aP2; HF+TT3, 40 mg/kg/day oral): decreased
FAS protein expression level in adipose tissue (FAS; HF+TT1, 10 mg/kg/day oral): significantly decreased
FAS protein expression level in liver (FAS; HF+TT1, 10 mg/kg/day oral): significantly decreased
FAS protein expression level in adipose tissue (FAS; HF+TT2, 20 mg/kg/day oral): significantly decreased
FAS protein expression level in liver (FAS; HF+TT2, 20 mg/kg/day oral): significantly decreased
FAS protein expression level in adipose tissue (FAS; HF+TT3, 40 mg/kg/day oral): significantly decreased
FAS protein expression level in liver (FAS; HF+TT3, 40 mg/kg/day oral): significantly decreased
SREBP-2 mRNA expression level in liver (SREBP-2; HF+TT1, 10 mg/kg/day oral): decreased
SREBP-2 mRNA expression level in liver (SREBP-2; HF+TT2, 20 mg/kg/day oral): decreased
SREBP-2 mRNA expression level in liver (SREBP-2; HF+TT3, 40 mg/kg/day oral): decreased
Liver lipids: Total lipid ([4]; HF+TT1, 10 mg/kg/day oral): 64.4 mg/g
Liver lipids: Triacylglycerol ([4]; HF+TT1, 10 mg/kg/day oral): 53 µmol/g
Liver lipids: Total lipid ([4]; HF+TT2, 20 mg/kg/day oral): 61.7 mg/g
Liver lipids: Triacylglycerol ([4]; HF+TT2, 20 mg/kg/day oral): 48 µmol/g
Liver lipids: Total lipid ([4]; HF+TT3, 40 mg/kg/day oral): 57.9 mg/g
Liver lipids: Triacylglycerol ([4]; HF+TT3, 40 mg/kg/day oral): 47.1 µmol/g
